Data reported in US6413517B1, “Identification of broadly reactive DR restricted epitopes” (Epimmune, Inc., priority 1997, dated 2002).
Where two headings read alike, the source gives them in different places.

What was measured:
[1] = biological target: T1, DRB1*0301 (DR3w17) (Homo sapiens, UniProt P01903+P01911, A100K/A102G/A103R/A169T/F55Y/I96L/K41T/L162R/M171V/P40S/Q125H/Q178H/Q39Y/R42S/S66N/T106N/T262R/W38E/Y61H); conditions: read-out: Binding Capacity (IC 50% nM) Other Alleles DR3
[2] = biological target: T2, DRB1*0802 (DR8w2) (Homo sapiens, UniProt P01903+P01911, A100R/A103L/A169T/F76Y/H45Y/I96F/K41T/L162R/M171V/P40S/Q125H/Q178H/Q39Y/Q99D/R218S/R42G/S66Y/V115G/W38E); assay: biochemical; assay type: binding
T2 construct: Epstein-Barr virus (EBV) transformed homozygous cell lines were used as sources; endogenous in cells; host or cells: OLL (EBV-transformed homozygous B cell line)

[3] = biological target: T3, DRB1*0405 (DR4w15) (Homo sapiens, UniProt P01903+P01911, A100R/A169T/D86S/F76Y/I96L/K127E/L162R/M171V/N62H/P40V/Q125Y/R42H/S133A/S149N/S66Y/V115G/V209L/W38E); assay: biochemical; assay type: binding
T3 construct: Epstein-Barr virus (EBV) transformed homozygous cell lines were used as sources; endogenous in cells; host or cells: KT3 (EBV-transformed homozygous B cell line)

[4] = biological target: T1, DRB1*0301 (DR3w17); assay: biochemical
[5] = biological target: T4, DRB1*1201 (DR5w12) (Homo sapiens, UniProt P01903+P01911, A100R/A169T/D57E/D86V/F55L/H45Y/K41T/L162R/M171V/P40S/Q125H/Q178H/Q39Y/Q99D/R42G/S66L/T262R/V114A/V67L/W38E/Y59H/Y61H/Y89S); assay: biochemical; assay type: binding
T4 construct: Epstein-Barr virus (EBV) transformed homozygous cell lines were used as sources; endogenous in cells; host or cells: Herluf (EBV-transformed homozygous B cell line)

[6] = biological target: T5, DRB1*0401 (DR4w4) (Homo sapiens, UniProt P01903+P01911, A100K/A169T/F76Y/I96L/K127E/L162R/M171V/N62H/P40V/Q125Y/R42H/S133A/S149N/S66Y/V115G/V209L/W38E); assay: biochemical; assay type: binding
T5 construct: Epstein-Barr virus (EBV) transformed homozygous cell lines were used as sources; endogenous in cells; host or cells: PREISS (EBV-transformed homozygous B cell line)

[7] = biological target: T6, DRB1*1101 (DR5w11) (Homo sapiens, UniProt P01903+P01911, A100R/A169T/A87E/I96F/K41T/L162R/M171V/P40S/Q125H/Q178H/Q39Y/Q99D/R42S/S66Y/T262R/V115G/W38E); assay: biochemical; assay type: binding
T6 construct: Epstein-Barr virus (EBV) transformed homozygous cell lines were used as sources; endogenous in cells; host or cells: SWEIG (EBV-transformed homozygous B cell line)

[8] = biological target: T7, DRB1*0101 (DR1) (Homo sapiens, UniProt P01903+P01911, A100R/D57E/F55L/F60I/F76Y/I96L/L162R/M171V/P40L/Q125E/R42F/V115G/Y59C); assay: biochemical; assay type: binding; conditions: Binding Capacity (IC 50% nM) DR1,4,7 DRB1
T7 construct: Epstein-Barr virus (EBV) transformed homozygous cell lines were used as sources; endogenous in cells; host or cells: LG2 (EBV-transformed homozygous B cell line)

[9] = biological target: T8, DRB1*1501 (DR2w2b) (Homo sapiens, UniProt P01903+P01911); assay: biochemical; assay type: binding
T8 construct: expressed in transfected cells; host or cells: transfected fibroblasts L466.1

[10] = biological target: T9, DRB1*0701 (DR7) (Homo sapiens, UniProt P01903+P01911, A100R/A102G/A103Q/D57E/D86V/E43K/F76Y/K127E/L162R/M171V/P40G/Q125H/Q99D/R33Q/R42Y/R54Q/S133A/S66F/T210M/V115G/Y107V/Y59L/Y89S); assay: biochemical; assay type: binding
T9 construct: Epstein-Barr virus (EBV) transformed homozygous cell lines were used as sources; endogenous in cells; host or cells: PITOUT (EBV-transformed homozygous B cell line)

[11] = biological target: T10, DRB1*0901 (DR9) (Homo sapiens, UniProt P01903+P01911, A100R/A103E/D57H/D86V/F55Y/F60I/F76Y/I96F/K127E/L162R/M171V/P40D/Q125H/Q99R/R33Q/R42F/S133A/S66N/T210M/V115G/W38K/Y107V/Y59G/Y89S); assay: biochemical; assay type: binding; conditions: Binding Capacity (IC 50% nM) Other Alleles DR9
T10 construct: Epstein-Barr virus (EBV) transformed homozygous cell lines were used as sources; endogenous in cells

[12] = biological target: T11, DRB5*0101 (DR2w2a) (Homo sapiens, UniProt P01903+Q30154); assay: biochemical; assay type: binding
T11 construct: Epstein-Barr virus (EBV) transformed homozygous cell lines were used as sources; endogenous in cells; host or cells: GM3107 (EBV-transformed homozygous B cell line)

[13] = biological target: T12, DRB1*1302 (DR6w19) (Homo sapiens, UniProt P01903+P01911, A100E/A169T/K41T/L162R/M171V/P40S/Q125H/Q178H/Q39Y/Q99D/R42S/S66N/T262R/V115G/W38E/Y61H); assay: biochemical; assay type: binding; conditions: Binding Capacity (IC 50% nM) Other Alleles DR6w19
T12 construct: Epstein-Barr virus (EBV) transformed homozygous cell lines were used as sources; the source of Class II molecules the EBV transformed homozygous cell line H0301; endogenous in cells; host or cells: H0301 (EBV-transformed homozygous B cell line)

[14] = read-out: Binding Capacity (IC 50% nM) Other Alleles DR8w2
[15] = read-out: Binding Capacity (IC 50% nM) Other Alleles DR4w15
[16] = Binding Capacity (IC50% nM) DR3
[17] = Binding Capacity (IC50% nM) DR5w12
[18] = read-out: Binding Capacity (IC 50% nM) Other Alleles DR5w12
[19] = Binding Capacity (IC50% nM) DR4w4
[20] = Binding Capacity (IC50% nM) DR5w11
[21] = read-out: Binding Capacity (IC 50% nM) Other Alleles DR5w11
[22] = Binding Capacity (IC50% nM) DR2w2b
[23] = read-out: Binding Capacity (IC 50% nM) Other Alleles DR2w2b
[24] = Binding Capacity (IC 50% nM) DR1,4,7 DR7
[25] = Binding Capacity (IC 50% nM) Other Alleles DR2w2a
[26] = Binding Capacity (IC 50% nM) Other Alleles DR8w2
[27] = Binding Capacity (IC 50% nM) Other Alleles DR2w2b
[28] = Binding Capacity (IC 50% nM) DR1,4,7 DR4w4

T6 sequence (P01903 26-254, other chains not shown): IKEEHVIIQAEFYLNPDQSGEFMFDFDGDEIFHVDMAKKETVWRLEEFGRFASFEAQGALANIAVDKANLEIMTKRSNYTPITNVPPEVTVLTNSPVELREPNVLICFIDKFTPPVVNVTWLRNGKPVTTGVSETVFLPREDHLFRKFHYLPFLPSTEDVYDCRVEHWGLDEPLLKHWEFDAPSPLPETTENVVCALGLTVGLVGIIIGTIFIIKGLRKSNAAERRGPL

Compound | IC50 [1] | IC50 [2, 14] | IC50 [3, 15] | IC50 [4, 16] | IC50 [5, 17] | IC50 [5, 18] | IC50 [6, 19] | IC50 [7, 20] | IC50 [7, 21] | IC50 [8] | IC50 [9, 22] | IC50 [9, 23] | IC50 [10, 24] | IC50 [11] | IC50 [12, 25] | IC50 [2, 26] | IC50 [9, 27] | IC50 [13] | IC50 [6, 28] | also measured
CC[C@H](C)[C@H](NC(=O)[C@H](CO)NC(=O)[C@H](CO)NC(=O)[C@H](CC(N)=O)NC(=O)[C@@H](NC(=O)[C@@H](NC(=O)[C@H](CC(N)=O)NC(=O)[C@@H](N)Cc1ccccc1)C(C)C)C(C)C)C(=O)NCC(=O)N[C@@H](CC(C)C)C(=O)N[C@H](C(=O)N[C@@H](CCSC)C(=O)N[C@H](C(=O)N[C@@H](CC(C)C)C(=O)N[C@@H](CO)C(=O)O)C(C)C)[C@@H](C)CC [Peptide 27.384] | > 1000 nM | > 1000 nM | > 1000 nM | > 10000 nM | > 10000 nM | > 1000 nM | > 10000 nM | > 10000 nM | > 1000 nM | – | – | – | – | – | – | – | – | – | – | IC50 ([2]; Binding Capacity (IC50% nM) DR8w2): > 10000 nM; IC50 ([3]; Binding Capacity (IC50% nM) DR4w15): > 10000 nM; IC50 ([6]; read-out: Binding Capacity (IC 50% nM) DR1,4,7 DR4w4): > 1000 nM
CC[C@H](C)[C@H](NC(=O)[C@H](C)NC(=O)[C@H](CC(C)C)NC(=O)[C@H](CCCCN)NC(=O)[C@H](CCCNC(=N)N)NC(=O)[C@@H](N)CCSC)C(=O)N[C@@H](CC(C)C)C(=O)N[C@@H](CO)C(=O)N[C@H](C(=O)N[C@@H](CO)C(=O)N[C@@H](CO)C(=O)N[C@@H](Cc1ccccc1)C(=O)N[C@@H](CC(C)C)C(=O)N[C@@H](Cc1ccccc1)C(=O)N[C@H](C(=O)O)C(C)C)C(C)C [Peptide 27.388] | – | – | – | > 10000 nM | – | – | – | – | – | < 1000 nM | – | – | – | – | – | – | – | – | – | –
CC(C)C[C@H](NC(=O)CN)C(=O)N[C@@H](C)C(=O)N[C@@H](Cc1ccc(O)cc1)C(=O)N[C@@H](CCCCN)C(=O)N[C@@H](Cc1ccccc1)C(=O)N[C@H](C(=O)N[C@H](C(=O)N1CCC[C@H]1C(=O)NCC(=O)N[C@@H](C)C(=O)N[C@@H](C)C(=O)N[C@H](C(=O)N1CCC[C@H]1C(=O)N[C@@H](Cc1ccc(O)cc1)C(=O)O)[C@@H](C)O)C(C)C)C(C)C [Peptide 1188.32] | > 1000 nM | – | – | > 10000 nM | – | – | – | – | – | – | > 10000 nM | > 1000 nM | – | – | – | – | – | – | – | –
CC[C@H](C)[C@H](NC(=O)[C@H](CC(C)C)NC(=O)[C@H](CCCCN)NC(=O)[C@H](CCSC)NC(=O)[C@H](C)NC(=O)[C@H](CC(C)C)NC(=O)[C@@H]1CCCN1C(=O)[C@@H](NC(=O)[C@H](C)NC(=O)[C@H](Cc1c[nH]cn1)NC(=O)[C@H](CC(N)=O)NC(=O)[C@@H](NC(=O)[C@H](Cc1c[nH]c2ccccc12)NC(=O)[C@H](CC(N)=O)NC(=O)[C@@H](N)Cc1c[nH]cn1)C(C)C)C(C)C)C(=O)O [Peptide 1188.34] | > 1000 nM | – | – | – | – | – | – | – | > 1000 nM | < 1000 nM | – | – | < 1000 nM | < 1000 nM | < 1000 nM | < 1000 nM | < 1000 nM | < 1000 nM | < 1000 nM | IC50 ([3]; Binding Capacity (IC 50% nM) Other Alleles DR4w15): < 1000 nM; IC50 ([5]; Binding Capacity (IC 50% nM) Other Alleles DR5w12): < 1000 nM
CSCC[C@H](NC(=O)[C@H](C)NC(=O)[C@H](CC(C)C)NC(=O)[C@@H]1CCCN1C(=O)[C@@H](NC(=O)[C@H](C)NC(=O)[C@H](Cc1c[nH]cn1)NC(=O)[C@H](CC(N)=O)NC(=O)[C@@H](NC(=O)[C@H](Cc1c[nH]c2ccccc12)NC(=O)[C@H](CC(N)=O)NC(=O)[C@H](Cc1c[nH]cn1)NC(=O)[C@@H](N)CCCNC(=N)N)C(C)C)C(C)C)C(=O)N[C@@H](CCCCN)C(=O)N[C@@H](CC(C)C)C(=O)O [Peptide 1188.45] | – | – | > 1000 nM | – | > 10000 nM | > 1000 nM | 9 nM | – | > 1000 nM | < 1000 nM | – | – | < 1000 nM | < 1000 nM | < 1000 nM | < 1000 nM | < 1000 nM | < 1000 nM | < 1000 nM | IC50 ([4]; Binding Capacity (IC 50% nM) Other Alleles DR3): < 1000 nM
CC(C)[C@H](NC(=O)[C@H](Cc1ccccc1)NC(=O)[C@@H](N)CCCCN)C(=O)N[C@H](C(=O)N1CCC[C@H]1C(=O)NCC(=O)N[C@@H](C)C(=O)N[C@@H](C)C(=O)N[C@H](C(=O)N1CCC[C@H]1C(=O)N[C@@H](Cc1ccc(O)cc1)C(=O)N[C@@H](C)C(=O)NCC(=O)N[C@@H](CCC(=O)O)C(=O)N1CCC[C@H]1C(=O)O)[C@@H](C)O)C(C)C [Peptide F107.17] | > 1000 nM | > 1000 nM | > 1000 nM | – | – | > 1000 nM | – | > 10000 nM | > 1000 nM | < 1000 nM | > 10000 nM | > 1000 nM | – | < 1000 nM | – | – | – | < 1000 nM | < 1000 nM | IC50 ([10]; Binding Capacity (IC50% nM) DR7): > 10000 nM; IC50 ([10]; read-out: Binding Capacity (IC 50% nM) DR1,4,7 DR7): > 1000 nM; IC50 ([12]; Binding Capacity (IC50% nM) DR2w2a): > 10000 nM; IC50 ([12]; read-out: Binding Capacity (IC 50% nM) Other Alleles DR2w2a): > 1000 nM
